This experiment concerns P. falciparum 3D7 growth, pLDH absorbance. The experiment in a line: P. falciparum 3D7 growth inhibition, dose response, strain 3D7 (AID 2305).

SMILES strings stand for the structures. Where “and” joins values, the source holds several entries; their conditions need not be identical. Equal entries are not always repeated.

The compound `C=CCOc1ccccc1CNCC(O)c1cc(Br)cs1` (centres undefined) returned an IC50 of 0.33 µM. That is a sub-micromolar value.
`CC(C)C[C@H](NC(=O)c1ccc(OCCN2CCOCC2)cc1)C(=O)N[C@H](/C=N/N1CCN(C)C1=O)CCc1ccccc1` registered an IC50 of 0.29 µM.
`Cc1cccc(C(O)CNc2ccnc(Nc3cccc(-c4csc(C)n4)c3)n2)c1` (centres undefined) registered an IC50 of 0.68 µM. Compared with the last compound, the IC50 is about 2.3-fold higher.
To `CC(C)CNc1nc(N)nc2ccc3c(ccn3CC(C)C)c12` belongs 0.65 µM.
To `COc1cc(NC(=O)Nc2ccc(Br)cc2C(=O)Nc2ccc(Br)cc2)cc(OC)c1OC` belongs 0.76 µM; to `O=C(Nc1cccc([N+](=O)[O-])c1)Nc1cccc(C(F)(F)F)c1`, 0.77 µM.
`CCCc1c(C(=O)Nc2ccc3c(c2)CCN(C2CCC2)CC3)cnn1-c1ccc(Cl)cc1` came in with an IC50 of 0.86 µM.
Turning to `O=C(/C=C/c1ccc(Cl)c(Cl)c1)NC1CCC(CN2CCC(c3c[nH]c4cc(C(F)(F)F)ccc34)CC2)CC1` (centres undefined), the IC50 was 0.9 µM and 0.28 µM.
To `O=C(Cn1c(=O)oc2ccccc21)N1CCC(n2c(=O)n(CCCN3CCOCC3)c3ccccc32)CC1` belongs 0.77 µM; to `Cc1cc(=O)[nH]c(-n2nc(C)cc2NC(=O)C(c2ccccc2)c2ccccc2)n1`, 0.84 µM.
On to `Cc1[nH]c2cc(Cl)ccc2c1C1=CCN(CCCCC2(C)C(=O)Nc3c(F)cccc32)CC1` (centres undefined), for which the IC50 is 0.84 µM.
Consider `NC(=O)c1cc2nc(Nc3ccc(F)cc3)nc(Nc3ccc(S(N)(=O)=O)cc3)c2[nH]1`, for which the IC50 came out at 0.8 µM.
`Clc1ccc(-c2cc3c(NCc4ccncc4)nccc3s2)cc1` yielded an IC50 of 0.85 µM.
For `CCOc1cc(C)ccc1C1CCN(CCCCNC(=O)c2ccc(NC(=O)c3cc(Cl)cc(Cl)c3)cc2)CC1` the value was 0.36 µM; for `COc1ccc(OC)c(Cc2cnc3nc(N)nc(N)c3c2C)c1`, 0.01 µM; for `Cc1cccc(C(=O)Nc2ccnc(N3CCC(N(C)Cc4ccc(C#N)cc4)CC3)c2)c1`, 0.91 µM.
For `Cc1cc(NN=Cc2cccc([N+](=O)[O-])c2)c2ccccc2n1` the value was 0.73 µM; for `FC(F)(F)COc1ccc2ccccc2c1CNCCCCCCNCc1c(OCC(F)(F)F)ccc2ccccc12`, 0.35 µM.
With `CC(C)C[C@H](NC(=O)c1ccc(OCCN2CCOCC2)cc1)C(=O)N[C@H](/C=N/N(C)C(=O)c1ccccc1)CCc1ccccc1`, the IC50 stood at 0.27 µM.
`O=c1cc(NCCCNCc2scc(I)c2I)[nH]c2ccccc12` showed an IC50 of 0.59 µM.
`O=C(NCC1CCC(C(=O)NC2CCCc3ccccc32)CC1)c1ccc(O)c(-c2ccc(Cl)c(Cl)c2)c1` (centres undefined) returned an IC50 of 1.02 µM.
For `O=C(NNC(=O)c1ccc(CCN2CCC(c3nc(COCC(F)(F)F)c(-c4ccc(F)cc4)o3)CC2)cc1)Nc1ccc(Oc2ccccc2)cc1` the value was 0.71 µM.
The compound `COc1cc(Nc2ccnc3cc(-c4nccs4)ccc23)ccc1OCCCc1nc2ccccc2[nH]1` showed an IC50 of 0.24 µM.
To `COc1ccc2c(NN=Cc3cccc(C)n3)cc(-c3ccccc3)nc2c1` belongs 0.75 µM.
In turn, `O=C(Nc1cccc(-c2ccc(CN3CCCC3)cc2)c1)c1cccc(Cl)c1` showed an IC50 of 0.43 µM.
For `O=C(/C=C/c1ccccc1O)NC1CCC(CN2CCC(c3c[nH]c4ccccc34)CC2)CC1` (centres undefined) the value was 0.76 µM and 0.46 µM; for `Cc1cc(NC(=O)Nc2cccc(N(C)C)c2)c2ccccc2n1`, 0.2 µM; for `CCc1cc(C(=O)c2cccc(C)c2)c(NC(=O)CN2CCN(C(=O)c3ccco3)CC2)s1`, 0.45 µM.
With `CCC(CC(NCCCCNC(=O)c1ccc(NC(=O)c2ccc(Cl)cc2)cc1)c1ccccc1)c1ccccc1OC` (centres undefined), the IC50 is 0.67 µM and 0.79 µM.
For the compound `O=C(Nc1ccc(OC2CCN(Cc3ccc(F)cc3)CC2)c(Cl)c1)c1ccco1`, the IC50 worked out at 0.3 µM.
In the case of `Cc1cc(NCCc2cccc(F)c2)nc(/N=C(\N)Nc2cccc(C(F)(F)F)c2)n1`, the IC50 worked out at 0.15 µM. This IC50 is about 2-fold lower than that of the compound before.
On to `CCOc1ccc(CN(CCc2ccc3c(c2)OCO3)Cc2cc(OC)ccc2O)cc1`, for which the concentration for half-maximal inhibition (IC50) was determined as 0.75 µM.
In turn, `c1ccc(-c2ccc(-c3nc4ccccc4[nH]3)cc2)cc1` returned an IC50 of 0.81 µM.
`Cc1ccccc1CN1CCCN(Cc2ccc(C(=O)Nc3ccc(C(C)(C)C)cc3)cc2)CC1` returned a half-maximal inhibitory concentration (IC50) of 0.86 µM. This IC50 and that of the compound before are within 1.5-fold of each other.

The values above are taken from PubChem BioAssay AID2305 (GlaxoSmithKline (GSK), 2010).
